In brackets after ≈: the same amount, converted by molar mass. Read-outs that look alike come from different tables or passages of the source.
Assays:
[1] = DPPH radical scavenging assay
Method: The DPPH scavenging test was carried out using the method mentioned by Brand-Williams et al.. The percentage of DPPH scavenging was measured using Equation (1): % DPPH scavenging = (ODcontrol − ODsample)/ODcontrol × 100(1)

[2] = target: porcine pancreatic elastase (Sus scrofa, UniProt P00772); test: Elastase inhibition assay (N-succinyl-Ala-Ala-Ala-p-nitroanilide substrate); assay type: biochemical; conditions: for remaining activity at 100 µg/mL: read-out: Elastase activity (% of control)
Sequence of porcine pancreatic elastase (P00772 27-266): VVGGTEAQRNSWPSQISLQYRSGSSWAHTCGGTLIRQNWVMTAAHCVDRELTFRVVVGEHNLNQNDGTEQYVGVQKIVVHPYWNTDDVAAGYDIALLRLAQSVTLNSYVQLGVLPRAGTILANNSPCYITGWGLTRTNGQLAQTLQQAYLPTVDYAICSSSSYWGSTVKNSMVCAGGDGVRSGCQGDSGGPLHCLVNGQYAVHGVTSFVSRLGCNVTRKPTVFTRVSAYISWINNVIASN
Method: The elastase inhibition activity of EAE and its pure molecules FC and FM2 was evaluated at different concentrations ranging from 12 to 100 µg/mL. […] At a concentration of 100 µg/mL, the percentages of elastase activity with EAE, FC, and FM2 were equal to 12%, 42%, and 29%, respectively. Besides, the percentage of elastase activity with Epigallocatechin gallate was 8%.
The elastase inhibitory effect of our samples was evaluated as described by Angelis et al., using the enzyme porcine pancreatic elastase and the substrate N-succinyl-Ala-Ala-Ala-p-nitroanilide. The extract and the pure molecules were evaluated at concentrations ranging between 12 and 100 µg/mL. Epigallocatechin gallate was used as a positive control. The elastase inhibition was measured using Equation (3):% Elastase inhibition = (ODcontrol − ODsample) ODcontrol × 100(3)

[3] = Transdermal diffusion, Franz diffusion cell with strat-M membrane; assay type: in vitro ADME; conditions: 5% EAE-hydro-cream, 24 h of incubation; for µg of Crossed Molecule/g of 5% Hydro-cream: strat-M membrane, 37 °C, mean ± SD (n = 9)
Method: The transdermal diffusion of 5% EAE-hydro-cream formulation was evaluated using Franz diffusion cell and start-M membrane. […] The receptor medium of the Franz cell was analyzed by HPLC-MS to determine the bioactive compounds that crossed the strat-M membrane after 24 h of incubation. […] The bioactive molecules FC and FM2 that crossed the strat-M membrane were subjected to quantification. […] Moreover, FC has crossed the membrane but with a lower concentration than FM2 (Table 4).
Transdermal diffusion was evaluated using a Franz diffusion cell system, as mentioned by Chuang et al. with certain modifications. Firstly, the start-M membrane, a model membrane for transdermal diffusion, was mounted in a Franz diffusion cell. Then, 5 mL of 0.1 M sodium phosphate buffer (PBS) and 1 g of extract formulation cream were placed in the receptor and the donor compartments, respectively. The extract formulation cream was prepared by mixing the hydro-cream base emulsion purchased from Galderma and the EAE at 5% (w/w) by a mechanical stirrer (VMI Rayneri, Francelab, Paris, France). The receptor medium of the Franz cell was maintained at 37 °C and stirred with a magnetic stirrer at 400 rpm. After 24 h, the receptor medium was recovered, evaporated, freeze-dried, and then 4 mL of MeOH was added. The sample was filtered through a 0.45 filter and analyzed by HPLC-MS to determine the bioactive molecules that were released from the start-M membrane. The bioactive molecules that crossed the start-M membrane were then quantified, as described in Section 4.4.6, by injecting the receptor medium through HPLC-DAD at a concentration of 10 mg/mL. Results were expressed as µg of molecule crossed the membrane/g of 5% EAE-hydro-cream.

mushroom tyrosinase = test: Tyrosinase inhibition assay (L-DOPA substrate); assay type: biochemical; conditions: for IC50 of tyrosinase activity: L-DOPA; for Tyrosinase activity (% of control): at a concentration of 100 µg/mL
Method: EAE and its pure molecules FC and FM2 were evaluated in vitro for their tyrosinase inhibition activity.
The inhibitory effect of our samples on the mushroom tyrosinase enzyme was analyzed using the substrate L-DOPA [71]. The extract and the pure molecules were evaluated at concentrations ranging between 12 and 200 µg/mL. […] The tyrosinase inhibition was measured as follows:% Tyrosinase inhibition = (ODcontrol − ODsample)/ODcontrol × 100(2)

[4] = Cell viability / cytotoxicity, MTT assay; conditions: mouse
Method: (§1) The cell viability of EAE and the two major isolated molecules FC and FM2 were evaluated against B16 cells.
(§2) B16 cells (C57BL/6, Resource No. RBRC-RCB0557) used in this study were prepared as described by Elloumi et al..
(§3) The MTT assay was performed to evaluate the cytotoxicity effect of our samples on B16 cells. Different sample concentrations (2.5–80 µg/mL) were applied to the Cells. The […] was measured as follows:% Cell viability = (ODsample/ODcontrol) × 100(4)

B16 cells = test: Cell viability / cytotoxicity, MTT assay; conditions: B16 cells, MTT; viability above 70% considered non-toxic (ISO 10993-5)
Method: as §1, §2, §3

[5] = target: T1, cellular tyrosinase in B16 cells (Mus musculus, UniProt P11344); test: Cellular tyrosinase activity assay on B16 cells; assay type: cell-based
T1 sequence (P11344 19-533): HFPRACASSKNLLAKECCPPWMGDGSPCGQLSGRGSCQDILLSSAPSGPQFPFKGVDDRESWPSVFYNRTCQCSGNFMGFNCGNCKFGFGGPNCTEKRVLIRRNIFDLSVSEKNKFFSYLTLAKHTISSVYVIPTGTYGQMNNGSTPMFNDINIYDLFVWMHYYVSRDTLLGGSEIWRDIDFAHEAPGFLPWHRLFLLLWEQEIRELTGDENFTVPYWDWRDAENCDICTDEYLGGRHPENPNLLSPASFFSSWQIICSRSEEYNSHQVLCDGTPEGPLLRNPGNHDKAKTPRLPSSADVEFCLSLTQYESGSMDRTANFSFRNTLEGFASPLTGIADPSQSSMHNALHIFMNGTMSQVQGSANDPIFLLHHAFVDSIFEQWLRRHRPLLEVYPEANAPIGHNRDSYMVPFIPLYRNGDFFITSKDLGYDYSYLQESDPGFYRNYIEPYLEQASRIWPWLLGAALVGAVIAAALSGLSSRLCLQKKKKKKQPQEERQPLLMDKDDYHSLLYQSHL
Method: The cellular tyrosinase inhibition activity on B16 cells was evaluated using EAE, FC, and FM2.
as §2
The cellular tyrosinase activity on B16 cells was evaluated as described by Kamei et al. with some modifications. Briefly, B16 cells were incubated in a 96-well plate (25 × 10^3 cells/well) for 24 h. […] After that, the cells were washed with PBS and lysed with PBS supplemented with 1% of Triton-X/PBS, after 48 h of samples exposure. A volume of 100 µL of 0.1% L-DOPA was added to the wells for 1 h. […] The cellular tyrosinase inhibition was measured as follows:% Cellular tyrosinase inhibition = (ODcontrol − ODsample)/ODcontrol × 100(5)

[6] = at a concentration of 100 µg/mL

Row | SMILES | Crossing of the strat-M membrane (detected in receptor medium by HPLC-MS) [3] | Tyrosinase activity (% of control) (mushroom tyrosinase) [%] | µg of Crossed Molecule/g of 5% Hydro-cream [3] | IC50 of tyrosinase activity (mushroom tyrosinase) [µg/mL] | remaining activity at 100 µg/mL [2, 6] [%] | Concentration that did not decrease the percentage of cell viability (B16 cells) [ng/mL] | further results
1 | O=C1O[C@H]([C@@H](O)CO)C(O)=C1O [Ascorbic acid] | – | – | – | – | – | – | DPPH IC50 [1]: 13.85 µg/mL
2 | O=C(O[C@@H]1Cc2c(O)cc(O)cc2O[C@@H]1c1cc(O)c(O)c(O)c1)c1cc(O)c(O)c(O)c1 [Epigallocatechin gallate, reference compound] | – | – | – | – | – | – | Elastase activity (% of control) [2, 6]: 8%; IC50 of elastase activity ([2]; porcine pancreatic elastase): 12 µg/mL
3 | C[C@@H]1O[C@@H](Oc2c(-c3ccc(O)c(O)c3)oc3cc(O)cc(O)c3c2=O)[C@H](O)[C@H](O)[C@H]1O [FC, quercetin-3-O-rhamnoside] | have crossed the membrane | 9 | 3.161 ± 0.006 µg/g of 5% hydro-cream | 49 | 42 | ≤ 2500 | IC50 [2]: 192 µM; IC50 [4]: 6.4 ± 0.53 µg/mL (≈ 14.3 µM); IC50 [5]: 7.49 µM

Continued, in another order:

Row | Crossing of the strat-M membrane (detected in receptor medium by HPLC-MS) [3] | Tyrosinase activity (% of control) (mushroom tyrosinase) [%] | SMILES | µg of Crossed Molecule/g of 5% Hydro-cream [3] | IC50 of tyrosinase activity (mushroom tyrosinase) [µg/mL] | remaining activity at 100 µg/mL [2, 6] [%] | Concentration that did not decrease the percentage of cell viability (B16 cells) [ng/mL] | further results
4 | have crossed the membrane | 10 | C[C@@H]1O[C@@H](Oc2c(-c3cc(O)c(O)c(O)c3)oc3cc(O)cc(O)c3c2=O)[C@H](O)[C@H](O)[C@H]1O [FM2, myricetin-3-O-rhamnoside] | 52.102 ± 0.001 µg/g of 5% hydro-cream | 34 | 29 | ≤ 10000 | IC50 ([2]; porcine pancreatic elastase, read-out: IC50 of elastase activity (converted)): 96.9 µM; IC50 ([4]; B16 cells): 19.3 ± 1.22 µg/mL (≈ 41.6 µM); IC50 ([5]; B16 cells, 48 h of samples exposure, read-out: Cellular tyrosinase inhibition IC50 (converted)): 9.91 µM
5 | – | 7 | O=c1cc(CO)occ1O [kojic acid, reference compound] | – | – | – | – | –
6 | have crossed the membrane | – | O=c1c(O[C@@H]2O[C@H](CO)[C@H](O)[C@H](O)[C@H]2O)c(-c2ccc(O)c(O)c2)oc2cc(O)cc(O)c12 [quercetin-3-O-galactoside] | – | – | – | – | –
